From US20150105252A1, “SUBSTITUTED PYRAZOLES AS HERBICIDES” (E I DU PONT DE NEMOURS AND COMPANY, priority 2013, published 2015)

Tests used:
barnyardgrass [1] = assay: Test A preemergence; type: in vivo, Echinochloa crus-galli; details: preemergence
Outline: (§1)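 Greenhouse test in loam soil/sand blend; compounds formulated in non-phytotoxic solvent with surfactant, applied as preemergence directed soil spray or postemergence to plants 2–10 cm tall at one- to two-leaf stage. Injury rated visually versus untreated controls after approximately 10 days on a 0 (no effect) to 100 (complete control) scale.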

barnyardgrass [2] = assay: Test B flood; type: in vivo, Echinochloa crus-galli; details: 250 g ai/ha, visual rating on 0 to 100 scale (0 no effect, 100 complete control), 13 to 15 days
Outline: (§2)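 Response scored visually, 0–100 relative to controls, 13–15 days after the compound was applied into paddy water; plants were at the 2-leaf stage in pots kept flooded to 3 cm.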

wheat [3] = assay: Test A preemergence; type: in vivo, Triticum aestivum; details: preemergence
Outline: as §1

sedge, umbrella = assay: Test B flood; type: in vivo, Cyperus difformis; details: 250 g ai/ha, visual rating on 0 to 100 scale (0 no effect, 100 complete control), 13 to 15 days
Outline: as §2

barnyardgrass [4] = assay: Test A postemergence; type: in vivo, Echinochloa crus-galli
Outline: as §1

velvetleaf [5] = assay: Test A preemergence; type: in vivo, Abutilon theophrasti; details: preemergence
Outline: as §1

foxtail, giant [6] = assay: Test A postemergence; type: in vivo, Setaria faberii
Outline: as §1

morningglory [7] = assay: Test A preemergence; type: in vivo, Ipomoea spp.; details: preemergence
Outline: as §1

morningglory [8] = assay: Test A postemergence; type: in vivo, Ipomoea spp.
Outline: as §1

rice = assay: Test B flood; type: in vivo, Oryza sativa; details: 250 g ai/ha, visual rating on 0 to 100 scale (0 no effect, 100 complete control), 13 to 15 days
Outline: as §2

crabgrass, large [9] = assay: Test A postemergence; type: in vivo, Digitaria sanguinalis
Outline: as §1

velvetleaf [10] = assay: Test A postemergence; type: in vivo, Abutilon theophrasti
Outline: as §1

corn [11] = assay: Test A postemergence; type: in vivo, Zea mays
Outline: as §1

pigweed [12] = assay: Test A preemergence; type: in vivo, Amaranthus retroflexus; details: preemergence
Outline: as §1

pigweed [13] = assay: Test A postemergence; type: in vivo, Amaranthus retroflexus
Outline: as §1

wheat [14] = assay: Test A postemergence; type: in vivo, Triticum aestivum
Outline: as §1

ducksalad = assay: Test B flood; type: in vivo, Heteranthera limosa; details: 250 g ai/ha, visual rating on 0 to 100 scale (0 no effect, 100 complete control), 13 to 15 days
Outline: as §2

foxtail, giant [15] = assay: Test A preemergence; type: in vivo, Setaria faberii; details: preemergence
Outline: as §1

crabgrass, large [16] = assay: Test A preemergence; type: in vivo, Digitaria sanguinalis; details: preemergence
Outline: as §1

corn [17] = assay: Test A preemergence; type: in vivo, Zea mays; details: preemergence
Outline: as §1

[18] = 125 g ai/ha, visual injury, 0 to 100 scale, approx. 10 days
[19] = 500 g ai/ha, visual injury after approx. 10 days, 0 to 100 scale (0 no effect, 100 complete control)
[20] = Postemergence, 500 g ai/ha, visual rating after approx. 10 days, 0 to 100 scale (0 no effect, 100 complete control)
[21] = postemergence, 125 g ai/ha, about 10 days, visual rating on 0 to 100 scale (0 no effect, 100 complete control)
[22] = Postemergence, 500 g ai/ha, 0 to 100 scale (0 no effect, 100 complete control)

Row | Compound | Barnyardgrass plant response rating (barnyardgrass [1]; [18]) | Barnyardgrass plant response rating (barnyardgrass [1]; [19]) | Plant response rating, Barnyardgrass (barnyardgrass [2]) | Wheat plant response rating (wheat [3]; [18]) | Wheat plant response rating (wheat [3]; [19]) | Plant response rating, Sedge, Umbrella (sedge, umbrella) | Barnyardgrass plant response rating (barnyardgrass [4]; [21]) | Velvetleaf plant response rating (velvetleaf [5]; [18]) | Velvetleaf plant response rating (velvetleaf [5]; [19]) | Foxtail, Giant plant response rating (foxtail, giant [6]; [21]) | Morningglory plant response rating (morningglory [7]; [18]) | Morningglory plant response rating (morningglory [7]; [19]) | Morningglory plant response rating (morningglory [8]; [21]) | Plant response rating, Rice (rice) | Crabgrass, Large plant response rating (crabgrass, large [9]; [21]) | Velvetleaf plant response rating (velvetleaf [10]; [21]) | Corn plant response rating (corn [11]; [21]) | Pigweed plant response rating (pigweed [12]; [18]) | Pigweed plant response rating (pigweed [12]; [19]) | Pigweed plant response rating (pigweed [13]; [21]) | other results
1 | CCc1cc(C(=O)NC2CC2)nn1Cc1cc(C(F)(F)F)nn1CC [Compound 118] | 40 | 100 | 0 | 0 | 30 | 85 | 30 | 0 | 80 | 10 | 70 | 100 | 70 | 0 | 40 | 50 | 20 | 100 | 100 | 80 | Barnyardgrass plant response rating (barnyardgrass [4]; [20]): 80; Foxtail, Giant plant response rating (foxtail, giant [6]; [20]): 70; Morningglory plant response rating (morningglory [8]; [20]): 90; Crabgrass, Large plant response rating (crabgrass, large [9]; [20]): 90; Velvetleaf plant response rating (velvetleaf [10]; [20]): 80; Corn plant response rating (corn [11]; [20]): 50; Pigweed plant response rating (pigweed [13]; [20]): 100; Wheat plant response rating (wheat [14]; [20]): 40; Wheat plant response rating (wheat [14]; [21]): 0; Plant response rating, Ducksalad (ducksalad): 30; Foxtail, Giant plant response rating (foxtail, giant [15]; [18]): 70; Foxtail, Giant plant response rating (foxtail, giant [15]; [19]): 90; Crabgrass, Large plant response rating (crabgrass, large [16]; [18]): 100; Crabgrass, Large plant response rating (crabgrass, large [16]; [19]): 100; Corn plant response rating (corn [17]; [18]): 0; Corn plant response rating (corn [17]; [19]): 50
2 | CCc1cc(C(=O)NCC(F)(F)F)nn1Cc1cc(C(F)(F)F)nn1CC [Compound 119] | 0 | 70 | 0 | 0 | 20 | 75 | 10 | 0 | 30 | 20 | 20 | 60 | 90 | 0 | 20 | 50 | 0 | 80 | 100 | 60 | Barnyardgrass plant response rating (barnyardgrass [4]; [22]): 60; Foxtail, Giant plant response rating (foxtail, giant [6]; [22]): 50; Morningglory plant response rating (morningglory [8]; [22]): 100; Crabgrass, Large plant response rating (crabgrass, large [9]; [22]): 60; Velvetleaf plant response rating (velvetleaf [10]; [22]): 70; Corn plant response rating (corn [11]; [22]): 50; Pigweed plant response rating (pigweed [13]; [22]): 90; Wheat plant response rating (wheat [14]; [22]): 10; Wheat plant response rating (wheat [14]; [21]): 0; Plant response rating, Ducksalad (ducksalad): 40; Foxtail, Giant plant response rating (foxtail, giant [15]; [18]): 20; Foxtail, Giant plant response rating (foxtail, giant [15]; [19]): 80; Crabgrass, Large plant response rating (crabgrass, large [16]; [18]): 70; Crabgrass, Large plant response rating (crabgrass, large [16]; [19]): 100; Corn plant response rating (corn [17]; [18]): 0; Corn plant response rating (corn [17]; [19]): 30
